{"source": "paper PMC7400623", "about": "“Effect of lysine side chain length on histone lysine acetyltransferase catalysis” (Scientific Reports, 2020)", "key": {"MOF (KAT8)": {"target": "T1, MOF (KAT8) (Homo sapiens, UniProt Q9H7Z6)", "T1 construct": "Human MOF catalytic domain (residues 125–458 in pET19b); His-tag; made in house; host or cells: E. coli BL21(DE3)", "T1 sequence (Q9H7Z6 125-458)": "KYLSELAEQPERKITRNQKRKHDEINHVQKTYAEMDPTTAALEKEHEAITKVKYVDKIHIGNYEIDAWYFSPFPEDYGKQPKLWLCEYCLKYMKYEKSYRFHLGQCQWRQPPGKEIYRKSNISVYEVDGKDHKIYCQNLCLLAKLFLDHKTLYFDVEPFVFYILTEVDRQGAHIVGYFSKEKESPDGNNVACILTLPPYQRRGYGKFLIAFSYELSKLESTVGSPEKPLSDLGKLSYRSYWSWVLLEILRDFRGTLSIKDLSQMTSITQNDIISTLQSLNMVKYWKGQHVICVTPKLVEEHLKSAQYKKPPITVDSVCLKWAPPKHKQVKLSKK", "test": "MALDI-TOF MS enzymatic assay of MOF-catalyzed acetylation of histone peptides", "format": "biochemical", "details": "100 µM peptide, 300 µM AcCoA, pH 8.0, 37 °C; for acetylation (conversion to acetylated peptide) by MOF: after 3 h, 2 µM MOF, 50 mM Hepes, 0.1 mM EDTA, 1 mM DTT, MALDI-TOF MS", "method": "MALDI-TOF MS enzymatic assays were carried out to investigate KAT-catalyzed acetylation of synthetic histone peptides. The enzymatic activity of the recombinantly expressed human KATs was measured at different time points (2 µM KAT enzyme, 100 µM histone peptide, 300 µM AcCoA, buffer: 50 mM Hepes, 0.1 mM EDTA, 1 mM DTT, pH = 8.0, 37 °C, hereafter used as standard conditions) (Fig. 3b,c). […] It is noteworthy that diacetylation of histone peptides was not detected under our assay conditions, due to preacetylation of the secondary site on H3. […] As further control, H4 and H3 peptides containing stereochemically inverted D-lysine were synthesized.\nThe KAT enzymatic activity towards histone peptides was measured at different time points under standard conditions (2 µM KAT enzyme, 100 µM peptide, 300 µM AcCoA) in the reaction buffer (50 mM HEPES, 0.1 mM EDTA, 1 mM DTT, pH = 8.0). The reactions were carried out in a final volume of 50 µL and shaken up in a Thermomixer C at 750 rpm, at 37 °C. The reactions were quenched by the addition of TFA 10% in MilliQ water at different time points. All reactions were aliquoted and mixed 1:2 with a solution of α-Cyano-4-hydroxycinnamic acid (CHCCA) in 1:1 MQ and ACN (0.1% TFA) and loaded onto an MTP 384 polished steel target to be analyzed by a UltrafleXtreme-II tandem mass spectrometer (Bruker, Billerica, MA, USA)."}, "MOF catalytic domain": {"target": "T2, MOF catalytic domain (Homo sapiens, UniProt Q9H7Z6)", "T2 construct": "Human MOF catalytic domain (residues 125–458 in pET19b); His-tag; made in house; host or cells: E. coli BL21(DE3)", "T2 sequence (Q9H7Z6 125-458)": "T1 sequence (Q9H7Z6 125-458)", "test": "MALDI-TOF MS kinetics assay, MOF", "format": "biochemical", "details": "for kcat^app / Km: MOF catalytic domain 570 nM (2 µM for unnatural analogs), peptide 1,050–0 µM, pH 7.4, 37 °C, MALDI-TOF MS, duplicates, value ± SD, SD; for kcat^app: AcCoA 100 µM (saturating), 50 mM HEPES, 0.1 mM EDTA, 0.01% TRITON-X; for Km: AcCoA 100 µM, read-out: Km^app; for kcat^app/Km^app: same kinetics conditions", "source_text": "Kinetic analysis of bi-substrate enzymes, such as KATs, is reckoned to be challenging and dependent on many factors. Firstly, given the nature of these enzymes, the binding of one of the two substrates directly influences the binding of the other (with a direct effect on the Michaelis–Menten parameter Km). […] Therefore, to obtain data that would allow us to directly compare the catalytic properties of the selected KATs towards our selection of histone peptides bearing lysine analogs with longer side chains, two strategies to standardize our kinetic evaluation were taken: i) all the experiments were carried out with the same saturating concentrations of AcCoA and ii) only KATs catalytic domains were employed in the study. […] In contrast, kcat values decreased substantially with an increase of the side chain length, both in the K14 and K9 peptide series, and for both PCAF and GCN5 (Table 1).\nHistone peptides kinetics evaluation was carried out with a MALDI-TOF MS assay under steady-state conditions[57],[58]. Histone peptides (1,050–0 µM) were incubated with AcCoA (100 µM) and the reactions were started by the addition of the enzyme (MOF 570 nM, PCAF and GCN5 50 nM) in a final volume of 20 µL in kinetic buffer (50 mM HEPES, 0.1 mM EDTA, 0.01% TRITON-X, pH = 7.4). For histone peptides bearing unnatural lysine analogs, higher concentration of enzymes was used (MOF, PCAF and GCN5 2 µM). […] AcCoA stock solutions in milli-Q water were calibrated with a NanoDrop 2000 spectrophotometer (Thermo Scientific, Waltham, MA, USA), employing the characteristic molar extinction coefficient ε260nm = 16,400 M^−1 cm^−1. Reactions were incubated at 37 °C, shaken at 750 rpm and quenched with TFA 10% in milli-Q water at different time points, within linear production of acetylated peptides extrapolated from time-course plots. All reactions were aliquoted and mixed 1:2 with a solution of α-cyano-4-hydroxycinnamic acid (CHCCA) in 1:1 MQ and ACN (0.1% TFA) and loaded onto MTP 384 polished steel target to be analyzed by UltrafleXtreme-II tandem mass spectrometer (Bruker). The amount of acetylated peptide was calculated by integration of the product peak area and divided it by the amount of unacetylated peptide, taking in account all the ionic species, at any concentration points using the FlexAnalysis software. Kinetic values were extrapolated by fitting V0 values (µM of produced peptide per minutes) and histone peptide concentrations to the Michaelis–Menten equation using the GraphPad Prism 5 software. Kinetic experiments were carried out in duplicates and final values are reported as value ± SD."}}}
{"sequence": "GGA hK 16 RHRKVLRDNIQ [H4hK16, 15-mer histone H4 peptide with hLys at position 16]", "values": [{"measurement": "acetylation (conversion to acetylated peptide) by MOF", "setting": "MOF (KAT8)", "result": 95, "unit": "%"}, {"measurement": "kcat^app", "setting": "MOF catalytic domain", "result": "0.0045 ± 0.0017", "unit": "s⁻¹"}, {"measurement": "Km", "setting": "MOF catalytic domain", "result": "344 ± 99", "unit": "µM"}, {"measurement": "kcat^app/Km^app", "setting": "MOF catalytic domain; MOF", "result": 13, "unit": "M⁻¹ s⁻¹"}]}
{"sequence": "GGA K16 RHRKVLRDNIQ [H4K16, reference compound]", "values": [{"measurement": "time to full acetylation by MOF", "setting": "MOF (KAT8); standard conditions: 2 µM MOF", "result": 30, "unit": "min"}, {"measurement": "kcat^app", "setting": "MOF catalytic domain", "result": "0.385 ± 0.0167", "unit": "s⁻¹"}, {"measurement": "Km", "setting": "MOF catalytic domain", "result": "593 ± 86", "unit": "µM"}, {"measurement": "kcat^app/Km^app", "setting": "MOF catalytic domain; MOF", "result": 648, "unit": "M⁻¹ s⁻¹"}]}
{"sequence": "GGA h2K16 RHRKVLRDNIQ [H4h2K16, 15-mer histone H4 peptide with h2K at position 16]", "values": [{"measurement": "acetylation (conversion to acetylated peptide) by MOF", "setting": "MOF (KAT8)", "result": 90, "unit": "%"}, {"measurement": "Km lower than that of H4hK16", "setting": "MOF catalytic domain; MOF", "result": "fourfold lower"}, {"measurement": "kcat^app", "setting": "MOF catalytic domain", "result": "0.001 ± 0.00017", "unit": "s⁻¹"}, {"measurement": "Km", "setting": "MOF catalytic domain", "result": "82.2 ± 15", "unit": "µM"}, {"measurement": "kcat^app/Km^app", "setting": "MOF catalytic domain; MOF", "result": 12, "unit": "M⁻¹ s⁻¹"}]}
